Measured values as given in publication PMC5064022, “KCNE1 induces fenestration in the Kv7.1/KCNE1 channel complex that allows for highly specific pharmacological targeting” (Nature Communications, 2016).

Columns and labels:
Type in all cases: cell-based
Kv7.1/KCNE1 [1] = biological target: T1, Kv7.1/KCNE1 (Homo sapiens, UniProt P15382+P51787); assay: Two electrode voltage clamp of Kv7.1/KCNE1 currents in Xenopus oocytes; details: 10 µM; percent change in current amplitude at end of pulse to +40 mV
Procedure: Template cDNAs (wildtype or mutant human Kv7.1 in pSGEM, wildtype human KCNE1 in pSP64) were linearized with a suitable restriction enzyme (Nhe I/pSGEM, Eco RI/pSP64). cRNA was synthesized from 1 μg linearized cDNA by in vitro transcription (mMessage mMachine T7 or SP6 kit, Ambion, Life Technologies Darmstadt, Germany). cRNA concentrations were determined by photometry (Nanodrop, Peqlab, Erlangen, Germany) and cRNA quality was checked by agarose gel electrophoresis.
Oocytes were commercially obtained from EcoCyte Bioscience (Castrop-Rauxel, Germany). Injection of stage 4 or 5 oocytes was performed using a nanoliter injector 2000 (WPI, Berlin, Germany). For standard pharmacological measurements, each oocyte was injected with 5 ng Kv7.1 cRNA alone or with 1 ng KCNE1 cRNA. To investigate the influence of KCNE1 on AC-1 sensitivity of Kv7.1 tetramers, 5 ng Kv7.1 cRNA was injected with different amounts of KCNE1 cRNA (0 ng, 0.005 ng, 0.05 ng, 0.5 ng and 5 ng). Injected oocytes were maintained in an incubator at 17 °C for 4–5 days in standard Barth solution (EcoCyte Bioscience, Castrop-Rauxel, Germany) supplemented with 90 μg ml^−1 theophylline, 63 μg ml^−1 penicillin, 40 μg ml^−1 streptomycin, and 100 μg ml^−1 gentamycin until used for two electrode voltage clamp (TEVC) measurements.
TEVC measurements were performed using a TurboTec-10CD amplifier (npi Electronic, Tamm, Germany) and an ITC-16 AD/DA-interface (Instrutech Corporation, Port Washington, New York, USA). Pulse and PulseFit software (HEKA, Lambrecht/Pfalz, Germany) was used for data acquisition and analysis. During TEVC recordings, oocytes were constantly perfused with control solution (ND96, containing in mM: 96 NaCl, 4 KCl, 1.8 CaCl2, 1 MgCl2, 5 mM HEPES, pH 7.6 supplemented 0.1–0.3% DMSO). AC solutions were freshly prepared in ND96 from a 10 mM DMSO stock solution. Glass capillaries were pulled to a fine point to produce current and voltage electrodes that were back-filled with 3 M KCl. When filled with this solution, electrode resistances ranged from 0.5–1.5 MΩ. Different voltage pulse protocols were used as follows: (1) To study the inhibitory effect of different AC derivatives, Kv7.1/KCNE1 currents were elicited by repetitive 7 s pulses to +40 mV applied every 30 s from a holding potential of −80 mV. (2) To analyse the voltage dependence of channel activation, currents were elicited by 10 s pulses to test voltages between −100 and +60 mV, applied in 20 mV increments from a holding potential of −80 mV. Tail currents were recorded at −120 mV. For control we always expressed KCNE1 alone along mutant channels and mutant currents were only taken into account when it reached at least 2.5- to 3-fold the size of the background Xenopus-Kv7.1/hKCNE1 currents.
Electrophysiological data were analysed using PulseFit software (HEKA, Lambrecht/Pfalz, Germany) and GraphPad Prism (GraphPad Software, Inc., La Jolla, California, USA). Channel inhibition was determined as reduction of whole cell current amplitude at the end of a 7 s test pulse to +40 mV. The concentration of compound that caused half-maximal inhibition (IC50) were determined using the Hill equation: Idrug/Imax=1/(1+[C/IC50]^H), where Idrug is the current amplitude in the presence of the drug, Imax is the current amplitude before drug application, C is the drug concentration and H is the Hill coefficient.

homomeric Kv7.1 channels = assay: AC-10 on homomeric Kv7.1 channels
Kv7.1/KCNE1 channels = assay: Reversibility of AC-10 current inhibition by washout, with or without UV irradiation
Kv7.1/KCNE1 [2] = biological target: T1, Kv7.1/KCNE1; assay: Current inhibition in CHO cells stably expressing Kv7.1/KCNE1
Procedure: Figure 5 PAL-based approach to identify AC binding site. (a) Schematic view of the PAL-based approach to investigate the binding site of AC-1. (b) Concentration-response curve for AC-10, the UV-active diazirine derivate of AC-1. The inhibitory effect of AC-10 was determined in CHO cells stably expressing Kv7.1/KCNE1. Inhibition was determined as percent change in current amplitude at the end of the depolarizing test pulse to +40 mV (±s.e.m.). (c) A new cDNA-construct (Kv7.1myc-2A-KCNE1myc in pXOOM) allows for functional expression of myc-tagged Kv7.1 and KCNE1 in HEK293T cells. In this construct, cDNAs of Kv7.1 and KCNE1 are linked via the T2A peptide sequence, which mediates co-translational protein cleavage. (d) Western blot analysis of affinity purified Kv7.1 and KCNE1 proteins. Kv7.1myc was purified using myc-agarose beads KCNE1 was purified using anti-KCNE1 coupled protein-A-sepharose beads (right). In both western blots, ‘+' indicates transfected cells, ‘−' indicates non-transfected control cells. Antibodies used for affinity purification are detected in ‘+' and ‘−'. […] It should be noted, that KCNE1, as a myc-tagged protein, should also be purified using the myc-agarose beads. […] Thus, KCNE1 expression was instead proven using the KCNE1 antibody. (e) Functional expression of Kv7.1myc-2A-KCNE1myc in HEK293T cells (scale bars indicate 1 nA, 1 s).

Compound | inhibition at 10 µM (Kv7.1/KCNE1 [1]) [%] | other results
CC(C)(Oc1cccc(C(F)(F)F)c1)C(=O)NC1C2CC3CC1CC(NS(C)(=O)=O)(C3)C2 (stereo not shown) [AC-3] | 73.7 ± 2.9 | 
Cc1cc(Cl)ccc1OC(C)(C)C(=O)NC1[C@@H]2CC3C[C@H]1CC(N)(C3)C2 (stereo partly shown) [AC-4, N-[(1 R,3 S)-5-amino-2-adamantyl]-2-(4-chloro-2-methyl-phenoxy)-2-methyl-propanamide] | 4.2 ± 6.1 | 
Cc1cc(Cl)ccc1OC(C)(C)C(=O)NC1C2CC3CC1CC(O)(C3)C2 (stereo not shown) [AC-5] | 40.9 ± 1.4 | 
Cc1cc(Cl)ccc1OC(C)(C)C(=O)NC1C2CC3CC1CC(C(=O)O)(C3)C2 (stereo not shown) [AC-6] | 64.6 ± 6.6 | 
Cc1cc(Cl)ccc1OC(C)(C)C(=O)NC1[C@@H]2CC3C[C@H]1CC(NC(=O)CCC1(C)N=N1)(C3)C2 (stereo partly shown) [AC-10, 2-(4-chloro-2-methyl-phenoxy)-2-methyl-N-[(1 R,3 S)-5-[3-(3-methyldiazirin-3-yl)propanoylamino]-2-adamantyl]propanamide] |  | inhibition of homomeric Kv7.1 channels (homomeric Kv7.1 channels): did not inhibit; inhibition after 38 min washout (Kv7.1/KCNE1 channels; after UV irradiation): 75%; inhibition after 38 min washout (Kv7.1/KCNE1 channels; non UV-activated): 40%; Hill-coeff. (Kv7.1/KCNE1 [2]): 1.7; IC50 (Kv7.1/KCNE1 [2]; +40 mV): 16 nM

Further lines, with some results ahead:

inhibition at 10 µM (Kv7.1/KCNE1 [1]) [%] | Compound | other results
86.8 ± 3 | Cc1cc(Cl)ccc1OC(C)(C)C(=O)NC1C2CC3CC1CC(NS(C)(=O)=O)(C3)C2 (stereo not shown) [AC-2] | 
38 ± 4.4 | Cc1cc(Cl)ccc1OC(C)(C)C(=O)NC1C2CC3CC1CC(NS(=O)(=O)N(C)C)(C3)C2 (stereo not shown) [AC-7] | 
74.5 ± 6.2 | CCOC(=O)NC12CC3CC(C1)C(NC(=O)C(C)(C)Oc1ccc(Cl)cc1C)C(C3)C2 (stereo not shown) [AC-8] | 
78.6 ± 3.3 | Cc1cc(Cl)ccc1OC(C)(C)C(=O)NC1C2CC3CC1CC(NC(=O)CC(C)C)(C3)C2 (stereo not shown) [AC-9] | 
